System: CYP1A2
Assay: CYP 450-1A2 induction assay in cryopreserved human hepatocytes
Assay type: in vitro ADME
Conditions: 10 μM test compound, 72 h, compared to vehicle control
Protocol: Cryopreserved human hepatocytes from a single donor are seeded on a 96 well collagen coated plate so that the final seeding density is 0.1×10^6 cells/well (final volume per well 0.1 mL). The cells are then incubated in seeding medium at 37° C., 95% humidity, 5% CO2 to allow the cells to attach. After 4 h, the seeding medium is replaced with 0.1 mL of pre warmed serum free Williams E medium containing 100 IU/mL penicillin, 100 μg/mL streptomycin, 10 μg/mL insulin, 2 mM L glutamine and 0.1 μM hydrocortisone.
The next day, cells are dosed with test compound in assay medium (final test compound concentration 10 μM; final DMSO concentration 0.1%). Positive control inducers, omeprazole (50 μM) for CYP1A2, phenobarbital (500 μM) for CYP2B6 and rifampicin (10 μM) for CYP3A4, are incubated alongside the test compound. Negative control wells are included where the test compound is replaced by vehicle solvent (0.1% DMSO in assay medium). Each test compound is dosed in triplicate. The cells are exposed to the solutions for 72 h with fresh solution added every 24 h.
For catalytic activity determination, a solution of the probe substrates, phenacetin (final concentration 25 μM), bupropion (final concentration 100 μM) and midazolam (final concentration 2.5 μM) is prepared in pre warmed assay medium. At the end of the 72 h exposure period, the media is replaced with the cocktail of probe substrates. The hepatocytes are incubated for 30 min. An aliquot is removed at the end of the incubation period and placed into methanol containing internal standard in a 1:2 ratio. The samples are centrifuged at 2500 rpm at 4° C. for 20 min. An aliquot of supernatant is diluted with deionised water and levels of acetaminophen, hydroxybupropion and 1 hydroxymidazolam are quantified using Cyprotex generic LC MS/MS methods.
The hepatocytes are solubilised in 0.1M sodium hydroxide at room temperature and protein content in each well determined using Pierce™ BCA Protein Assay Kit (Thermo Scientific) using bovine serum albumin as a standard.
For catalytic activity determination, the concentration of metabolite formed at each test compound replicate is converted to CYP activity and normalised to protein. The fold change is determined by comparing to the vehicle control wells. The fold change observed at each test compound concentration is expressed as a percentage of the positive control compounds for each P450 isoform.

Compound	induction of CYP1A2
O=S(=O)(Nc1nc(F)c(OCCF)cc1F)c1c[nH]c2c(OC3CC3)c(Cl)ccc12 [Example I-2, 6-chloro-7-cyclopropyloxy-N-[3,6-difluoro-5-(2-fluoroethoxy)pyridin-2-yl]-1H-indole-3-sulfonamide]	no CYP1A2 induction
O=S(=O)(Nc1nc(F)c(OCCF)cc1F)c1c[nH]c2c(C(F)F)c(Cl)ccc12 [Example I-3, 6-chloro-N-[3,6-difluoro-5-(2-fluoroethoxy)pyridin-2-yl]-7-(difluoromethyl)-1H-indole-3-sulfonamide]	no CYP1A2 induction
O=S(=O)(Nc1nc(F)c(OCCF)cc1F)c1c[nH]c2cc(Cl)ccc12 [Comparative Example 1, 6-chloro-N-[3,6-difluoro-5-(2-fluoroethoxy)pyridin-2-yl]-1H-indole-3-sulfonamide, reference compound]	16 fold
O=S(=O)(Nc1nc(F)c(OCCF)cc1F)c1c[nH]c2c(C3CC3)c(Cl)ccc12 [Example I-12, 6-chloro-7-cyclopropyl-N-[3,6-difluoro-5-(2-fluoroethoxy)pyridin-2-yl]-1H-indole-3-sulfonamide]	no CYP1A2 induction
O=S(=O)(Nc1nc(F)c(OCCF)cc1F)c1c[nH]c2c(Cl)c(Cl)ccc12 [Example I-1, 6,7-dichloro-N-[3,6-difluoro-5-(2-fluoroethoxy)pyridin-2-yl]-1H-indole-3-sulfonamide]	no CYP1A2 induction

Biological target: T1, GPR17 (Homo sapiens, UniProt Q13304)
Assay: not given
Conditions: activating ligands for GPR17; cited from earlier work
Target sequence in this assay (Q13304 whole entry, species assumed): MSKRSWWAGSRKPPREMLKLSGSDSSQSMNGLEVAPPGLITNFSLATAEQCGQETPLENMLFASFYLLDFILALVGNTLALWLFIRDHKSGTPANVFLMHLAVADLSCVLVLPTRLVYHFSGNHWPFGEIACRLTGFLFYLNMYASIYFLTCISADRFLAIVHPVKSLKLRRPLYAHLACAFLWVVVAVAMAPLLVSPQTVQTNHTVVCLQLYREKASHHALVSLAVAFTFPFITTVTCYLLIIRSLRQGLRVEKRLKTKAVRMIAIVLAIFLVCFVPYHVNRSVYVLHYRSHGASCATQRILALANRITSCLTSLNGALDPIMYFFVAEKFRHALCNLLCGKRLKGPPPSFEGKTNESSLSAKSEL

Compound	amounts needed in the assays
NCc1[nH]cc(CCC(=O)O)c1CC(=O)O [PBG, porphobilinogen]	mM range
NCC(=O)CCC(=O)O [Example 5-ALA, 5 amino levulinic acid]	three digit micromolar range

Biological target: T1, GPR17
Assay: cAMP accumulation functional assay (HTRF, Schild analysis vs MDL29,951)
Assay type: cell-based
Parameters: host or cells: Flp-In T-REx CHO
Conditions: CHO hGPR17, Schild analysis against MDL29,951, activity range; read-out: cAMP assay pA2 (converted)
Protocol: Flp-In T-REx CHO cells stably expressing human GPR17 receptor (CHO hGPR17) from Evi Kostenis' lab (Bonn University, Germany) were cultured at 37° C. in a humidified atmosphere of 5% CO2. Cells were grown in DMEM with Nutrient Mixture F-12 supplemented with hygromycin B (500 μg/ml) and blasticidin (30 μg/ml). Expression from the Flp-In locus was induced by treatment with doxycycline (1 μg/ml) for 16-20 h prior assays.
GPR17 activation can also recruit Gi-type G-protein signaling, resulting in a decrease of intracellular cyclic adenosine monophosphate (cAMP). Intracellular cAMP changes can be measured using the HTRF cAMP dynamic assay kit from CisBio (Codolet, France). Using homogenous time-resolved fluorescence technology (HTRF), the assay is based on competition between native cAMP produced by cells and cAMP labelled with the dye d2. The tracer binding was determined by an anti-cAMP antibody labeled with cryptate.
CHO hGPR17 were detached with PBS containing EDTA and dispatched in black 384-well plates with 5,000 cells per well. Cells were first incubated for 30 minutes at room temperature in HBSS Hepes (pH 7.4) containing vehicle or varying concentrations of test GPR17 antagonist/inverse agonist compounds. Then, a dose response curve of MDL29,951 GPR17 agonist (typically from 10^−5 M to 10^−10 m) was added on vehicle and on each test GPR17 antagonist/inverse agonist compound concentration in a final volume of 20 μL HBSS Hepes buffer (pH 7.4) containing 1% DMSO, 5 μM forskolin and 0.1 mM IBMX. After 60 minutes incubation at room temperature, the reaction is terminated and the cells lysed by adding the d2 detection reagent and the cryptate reagent in 10 μL lysis buffer each according to manufacturer's instructions. After 60 minutes incubation, changes in cAMP concentrations are measured according to manufacturer's instructions using an Envision plate reader with laser excitation. All incubations were performed in duplicate. Data was analyzed using GraphPad Prism software using the 4-parameter logistic equation to measure MDL29,951 pEC50s in absence and presence of GPR17 antagonist/inverse agonist test compounds. Dose ratio (DR) were plotted against antagonist concentrations and Schild analysis provided estimated affinity pA2 of GPR17 antagonist/inverse agonist test compounds.
Target sequence in this assay (Q13304 whole entry): as the sequence (Q13304 whole entry, species assumed) above

Compound	Kb
O=S(=O)(Nc1ncc(OCCF)cc1F)c1c[nH]c2c(Cl)c(Cl)ccc12 [Example I-5, 6,7-dichloro-N-[3-fluoro-5-(2-fluoroethoxy)pyridin-2-yl]-1H-indole-3-sulfonamide]	3.16 to 31.6 nM
COc1cc(OCC(F)F)cnc1NS(=O)(=O)c1c[nH]c2c(Cl)c(Cl)ccc12 [Example I-21, 6,7-dichloro-N-[5-(2,2-difluoroethoxy)-3-methoxypyridin-2-yl]-1H-indole-3-sulfonamide]	3.16 to 31.6 nM
O=S(=O)(Nc1nc(F)c(OCC(F)F)cc1F)c1c[nH]c2c(F)c(Cl)ccc12 [Example I-11, 6-chloro-N-[5-(2,2-difluoroethoxy)-3,6-difluoropyridin-2-yl]-7-fluoro-1H-indole-3-sulfonamide]	≤ 3.16 nM
COc1cc(OC(F)F)cnc1NS(=O)(=O)c1c[nH]c2c(C(F)F)c(Cl)ccc12 [Example I-17, 6-chloro-N-[5-(difluoromethoxy)-3-methoxypyridin-2-yl]-7-(difluoromethyl)-1H-indole-3-sulfonamide]	3.16 to 31.6 nM
O=S(=O)(Nc1ncc(OCCF)cc1F)c1c[nH]c2c(F)c(C(F)F)ccc12 [Example I-8, 6-(difluoromethyl)-7-fluoro-N-[3-fluoro-5-(2-fluoroethoxy)pyridin-2-yl]-1H-indole-3-sulfonamide]	> 31.6 nM
COc1cc(OC(F)F)cnc1NS(=O)(=O)c1c[nH]c2c(Cl)c(Cl)ccc12 [Example I-16, 6,7-dichloro-N-[5-(difluoromethoxy)-3-methoxypyridin-2-yl]-1H-indole-3-sulfonamide]	≤ 3.16 nM
O=S(=O)(Nc1nc(F)c(OCCF)cc1F)c1c[nH]c2c(OC3CC3)c(Cl)ccc12 [Example I-2, 6-chloro-7-cyclopropyloxy-N-[3,6-difluoro-5-(2-fluoroethoxy)pyridin-2-yl]-1H-indole-3-sulfonamide]	≤ 3.16 nM
O=S(=O)(Nc1ncc(OCC(F)F)cc1F)c1c[nH]c2c(Cl)c(Cl)ccc12 [Example I-6, 6,7-dichloro-N-[5-(2,2-difluoroethoxy)-3-fluoropyridin-2-yl]-1H-indole-3-sulfonamide]	3.16 to 31.6 nM
O=S(=O)(Nc1ncc(OCC(F)F)cc1F)c1c[nH]c2c(C(F)F)c(Cl)ccc12 [Example I-14, 6-chloro-N-[5-(2,2-difluoroethoxy)-3-fluoropyridin-2-yl]-7-(difluoromethyl)-1H-indole-3-sulfonamide]	3.16 to 31.6 nM
COc1nc(NS(=O)(=O)c2c[nH]c3c(F)c(Cl)ccc23)c(F)cc1OCCOC(F)F [Example I-23, 6-chloro-N-[5-[2-(difluoromethoxy)ethoxy]-3-fluoro-6-methoxypyridin-2-yl]-7-fluoro-1H-indole-3-sulfonamide]	≤ 3.16 nM
COc1nc(NS(=O)(=O)c2c[nH]c3c(Cl)c(Cl)ccc23)c(F)cc1OCC(F)F [Example I-13, 6,7-dichloro-N-[5-(2,2-difluoroethoxy)-3-fluoro-6-methoxypyridin-2-yl]-1H-indole-3-sulfonamide]	≤ 3.16 nM
O=S(=O)(Nc1nc(F)c(OCCF)cc1F)c1c[nH]c2c(C(F)F)c(Cl)ccc12 [Example I-3, 6-chloro-N-[3,6-difluoro-5-(2-fluoroethoxy)pyridin-2-yl]-7-(difluoromethyl)-1H-indole-3-sulfonamide]	≤ 3.16 nM
O=S(=O)(Nc1ncc(OCCF)cc1F)c1c[nH]c2c(C(F)F)c(Cl)ccc12 [Example I-7, 6-chloro-7-(difluoromethyl)-N-[3-fluoro-5-(2-fluoroethoxy)pyridin-2-yl]-1H-indole-3-sulfonamide]	3.16 to 31.6 nM
COc1nc(NS(=O)(=O)c2c[nH]c3c(F)c(Cl)ccc23)c(F)cc1OCC(F)F [Example I-22, 6-chloro-N-[5-(2,2-difluoroethoxy)-3-fluoro-6-methoxypyridin-2-yl]-7-fluoro-1H-indole-3-sulfonamide]	≤ 3.16 nM
O=S(=O)(Nc1nc(F)c(OCCF)cc1F)c1c[nH]c2c(C3CC3)c(Cl)ccc12 [Example I-12, 6-chloro-7-cyclopropyl-N-[3,6-difluoro-5-(2-fluoroethoxy)pyridin-2-yl]-1H-indole-3-sulfonamide]	3.16 to 31.6 nM
O=S(=O)(Nc1nc(F)c(OCCF)cc1F)c1c[nH]c2c(Cl)c(Cl)ccc12 [Example I-1, 6,7-dichloro-N-[3,6-difluoro-5-(2-fluoroethoxy)pyridin-2-yl]-1H-indole-3-sulfonamide]	≤ 3.16 nM
COc1nc(NS(=O)(=O)c2c[nH]c3c(Cl)c(C(F)F)ccc23)c(F)cc1OCC(F)F [Example I-20, 7-chloro-N-[5-(2,2-difluoroethoxy)-3-fluoro-6-methoxypyridin-2-yl]-6-(difluoromethyl)-1H-indole-3-sulfonamide]	≤ 3.16 nM
O=S(=O)(Nc1nc(F)c(OCCF)cc1F)c1c[nH]c2c(OC(F)(F)F)c(Cl)ccc12 [Example I-18, 6-chloro-N-[3,6-difluoro-5-(2-fluoroethoxy)pyridin-2-yI]-7-(trifluoromethoxy)-1H-indole-3-sulfonamide]	3.16 to 31.6 nM
O=S(=O)(Nc1nc(F)c(OCCF)cc1F)c1c[nH]c2c(F)c(Cl)ccc12 [Example I-10, 6-chloro-N-[3,6-difluoro-5-(2-fluoroethoxy)pyridin-2-yl]-7-fluoro-1H-indole-3-sulfonamide]	≤ 3.16 nM
COc1nc(NS(=O)(=O)c2c[nH]c3c(C(F)F)c(Cl)ccc23)c(F)cc1OCC(F)F [Example I-15, 6-chloro-N-[5-(2,2-difluoroethoxy)-3-fluoro-6-methoxypyridin-2-yl]-7-(difluoromethyl)-1H-indole-3-sulfonamide]	≤ 3.16 nM
O=S(=O)(Nc1ncc(OCC(F)F)cc1F)c1c[nH]c2c(F)c(C(F)F)ccc12 [Example I-19, N-[5-(2,2-difluoroethoxy)-3-fluoropyridin-2-yl]-6-(difluoromethyl)-7-fluoro-1H-indole-3-sulfonamide]	> 31.6 nM

From patent US11976056B2, “Substituted alkoxypyridinyl indolsulfonamides” (UCB Pharma GmbH, priority 2018, dated 2024)
